From ChEMBL document CHEMBL1201862, “PubChem BioAssay data set” (2004)
Several values for one entry are separate records, joined by “and”; a condition that tells them apart may be missing. Equal entries are not always repeated.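 96-well plates; 48 h exposure; 5 concentrations. Endpoints by linear interpolation between flanking doses. Not reached: highest tested concentration assigned. Here, GI50 denotes the concentration required for 50% inhibition of growth.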 Activity calls are given as the source filed them. Rule as the data show it: active = GI50 up to about 1.1 µM and inactive = higher.

Legend:
Test in all cases: DTP human tumour cell line panel, 48 h
UACC-257 = tested on: UACC-257
SK-MEL-28 = tested on: SK-MEL-28
SF-295 = tested on: SF-295
MDA-N = tested on: MDA-N
NCI-H23 = tested on: NCI-H23
RXF 393 = tested on: RXF 393
SN12C = tested on: SN12C
MDA-MB-231 = tested on: MDA-MB-231
OVCAR-3 = tested on: OVCAR-3
NCI-H226 = tested on: NCI-H226
TK-10 = tested on: TK-10
HCT-15 = tested on: HCT-15
SK-OV-3 = tested on: SK-OV-3
MDA-MB-435 = tested on: MDA-MB-435
EKVX = tested on: EKVX
NCI/ADR-RES = tested on: NCI/ADR-RES
CAKI-1 = tested on: CAKI-1
UACC-62 = tested on: UACC-62
HOP-62 = tested on: HOP-62
PC-3 = tested on: PC-3

| Structure (SMILES) | GI50 (UACC-257) | GI50 (SK-MEL-28) | GI50 (SF-295) | GI50 (MDA-N) | GI50 (NCI-H23) | GI50 (RXF 393) | GI50 (SN12C) | GI50 (MDA-MB-231) | GI50 (OVCAR-3) | GI50 (NCI-H226) | GI50 (TK-10) | GI50 (HCT-15) | GI50 (SK-OV-3) | GI50 (MDA-MB-435) | GI50 (EKVX) | GI50 (NCI/ADR-RES) | GI50 (CAKI-1) | GI50 (UACC-62) | GI50 (HOP-62) | GI50 (PC-3) |
| --- | --- | --- | --- | --- | --- | --- | --- | --- | --- | --- | --- | --- | --- | --- | --- | --- | --- | --- | --- | --- |
| COc1cc(NS(C)(=O)=O)ccc1Nc1c2ccccc2nc2c1[nH]c1ccc(NC3OC(CO)C(O)C(O)C3O)cc12 (stereo not given) | 0.74 µM (active) | 0.122 µM (active) | < 0.0139 µM (active) | 474 nM (active) | 0.0215 µM (active) | 0.144 µM (active) | 0.0203 µM (active) | 0.546 µM (active) | 0.538 µM (active) | < 0.0181 µM (active) | 0.197 µM (active) | 0.152 µM | 0.0173 µM (active) | 798 nM (active) | 0.782 µM (active) | 2.39 µM (inactive) | < 0.01 µM (active) | 0.0213 µM (active) | < 0.0163 µM (active) | 0.0908 µM (active) |
| S=C1Cc2c(-c3ccccc3)cc(-c3ccc(Cl)cc3)nc2-c2ccccc2N1 | 4.7 µM (inactive) | 3.4 µM (inactive) | 3.39 µM (inactive) | 4270 nM (inactive) | 2.88 µM (inactive) | 3.06 µM (inactive) | 1.63 µM (inactive) | 1.53 µM (inactive) | 3.07 µM (inactive) | 2.9 µM (inactive) | 2.12 µM (inactive) | 6.84 µM | 2.38 µM (inactive) | 4790 nM (inactive) | 2.52 µM (inactive) | 2.38 µM (inactive) | 1.36 µM (inactive) | 2.45 µM (inactive) | 1.39 µM (inactive) | 6.14 µM (inactive) |
| Cc1ccc(C2SCc3nc4ccccc4n32)cc1 (stereo not given) | 4.79 µM (inactive) | 6.62 µM (inactive) | 2.19 µM (inactive) | 407 nM (active) | 2.72 µM (inactive) | 1.98 µM (inactive) | 3.01 µM (inactive) | 10.6 µM (inactive) | 4.72 µM (inactive) | 1.88 µM (inactive) | 3.54 µM (inactive) | 1.85 µM | 7.8 µM (inactive) | 451 nM (active) | 5.35 µM (inactive) | 2.37 µM (inactive) | 1.52 µM (inactive) | 2.43 µM (inactive) | 3.44 µM (inactive) | 1.88 µM (inactive) |
| CN(C)CCOC1(Cc2ccc(F)cc2)CCC(C(C)(C)C)CC1 (stereo not given) | 5.58 µM (inactive) and 4.09 µM (inactive) | 6.05 µM (inactive) and 4.17 µM (inactive) | 5.75 µM (inactive) and 6.38 µM (inactive) | 3.2 µM (inactive) and 5.93 µM (inactive) | 13.3 µM (inactive) and 12 µM (inactive) | 0.857 µM (active) | 11.3 µM (inactive) and 12 µM (inactive) | 9.62 µM (inactive) and 10.5 µM (inactive) | 8.67 µM (inactive) and 13.4 µM (inactive) | 9.38 µM (inactive) and 10.5 µM (inactive) | 6.95 µM (inactive) and 12 µM (inactive) | 8.13 µM and 6.81 µM | 14 µM (inactive) and 15.2 µM (inactive) | 3.51 µM (inactive) and 4.54 µM (inactive) | 11 µM (inactive) and 16 µM (inactive) | 12.9 µM (inactive) and 10.6 µM (inactive) | 6.47 µM (inactive) and 7.69 µM (inactive) | 4.36 µM (inactive) and 6.52 µM (inactive) | 7 µM (inactive) and 6.82 µM (inactive) | 5.85 µM (inactive) and 5.07 µM (inactive) |
| NC(=O)C1=C(c2ccccc2)c2ccccc2C1=O | 13.6 µM (inactive) | 20.1 µM (inactive) | 23 µM (inactive) | 19500 nM (inactive) | 18.1 µM (inactive) | 19.7 µM (inactive) | 18.5 µM (inactive) | 17.8 µM (inactive) | 11.8 µM (inactive) | 18.2 µM (inactive) | 18.1 µM (inactive) | 12.3 µM | 18.3 µM (inactive) | 26100 nM (inactive) | 18.8 µM (inactive) | 17.7 µM (inactive) | 16 µM (inactive) | 17.4 µM (inactive) | 14.9 µM (inactive) | 17.8 µM (inactive) |
